Residues, ends and D or L forms follow the SMILES beside them. *: point of attachment. Cbz = O=C(OCc1ccccc1)*
How the values were obtained:
[1] = test system: polyubiquitylated proteins; test: UV-induced degradation of polyubiquitylated proteins in organotypic cerebellar brain slices; format: cell-based, mice; details: Bafilomycin A1 18 hrs, UV 150 mJ
Experimental: Experiments were conducted to determine if UV would induce degradation of the ubiquitin-conjugated cellular proteins in A-T organotypic brain slices grown in culture, similar to the findings described herein for A-T cells (See FIGS. 8A-8B). Two-month-old mice were used irrespective of the gender. Cerebellar organotypic brain slices (400 μm thick) from three mice were obtained using a McIlwain tissue chopper (The Mickle Lab Eng. Co. Ltd). Slices from two A-T mice and three ATM+/− mice were pooled and randomly placed on Millicell culture plate inserts (Millipore, MA). Brain slices were then incubated for 1 day in OptiMem-based medium at 37° C. in a humidified atmosphere of 5% CO2 and 95% air. One day later, slices were treated with Bafilomycin A1 for 18 hrs. Slices were then exposed to UV (150 mJ)) or left untreated. After three hours, tissue lysates were prepared as described herein. Lysates were then analyzed by Western analysis using anti-ubiquitin antibody as described herein, and the results shown in FIG. 17A. Intensity of the total polyubiquitylated proteins and free ubiquitin was quantitated using BioRad Quantity One software. All control values (−UV and +Bafl) were normalized to 100%, and values for experimental treatments were expressed as percent variations over control to give the results shown in FIG. 17B. […]

[2] = test system: polyubiquitylated proteins; test: Camptothecin-induced degradation of polyubiquitylated proteins in A-T cells; format: cell-based, human; details: CPT 10 μm with Bafl 1 nm, 24 hr
Experimental: To test the generality of this observation, the anticancer drug camptothecin (CPT), a genotoxic agent (37, 48-50), which is known to sensitize A-T cells (37), like UV, was used to induce degradation of polyubiquitylated proteins in A-T cells. In FIG. 8E, A-T cells were treated with camptothecin (CPT; 10 μm) in the presence or absence of Bafl (1 nm) for 24 hr. Ubiquitin conjugated proteins using anti-ubiquitin antibodies were detected as described herein for FIG. 8A. The experiment was repeated three times.

[3] = test system: HA-polyubiquitylated proteins; test: UV-induced degradation of HA-polyubiquitylated proteins (anti-HA Western blot); format: cell-based, human; details: for UV-induced degradation of HA-Lys48-linked polyubiquitylated proteins: HA-Lys48 only ubiquitin construct; for UV-induced decrease of HA-polyubiquitylated proteins: MG132 1 μM or Bafl 1 nM 18 h, 3 h recovery; for UV-induced decrease of HA-polyubiquitylated proteins / UV-induced degradation of HA-polyubiquitylated proteins: UV 25 mJ/m2; for UV-induced degradation of HA-polyubiquitylated proteins: MG132 1 nm or 3-MA 10 nm for 18 h
Experimental: Immunoblotting Analysis of HA-ubiquitin conjugated proteins in cells exposed to UV radiation. Cells ([…]) were transfected with a hemagglutinin (HA)-ubiquitin plasmid using the PolyFect transfection reagent (Qiagen; Valencia, CA) as described (24). Twenty-four h after transfection, cells were treated with either proteasome inhibitor MG132 (1 μM) (Boston Biochemicals; Cambridge, MA) or autophagy inhibitor Bafilomycin A1 (Bafl) (1 nM) (Sigma-Aldrich) or 3-Methyladenine (3-MA) (100 nM) for 18 h. Cells were exposed to UV radiation (25 mJoules, using BioRad GS Gene Linker™ UV Chamber) and/or left untreated. Cells were then allowed to recover in the presence of inhibitors for 3 hr. Cell lysis, SDS-PAGE, and immunoblotting analysis to detect HA-ubiquitin conjugated proteins using anti-HA antibodies was carried out as described herein.
Decrease in the steady state levels of polyubiquitylated proteins could be due to their increased deubiquitylation or increased degradation via the 26S proteasome. Also, the ubiquitin antibody used in the experiment herein is known to cross-react with free ISG15/UCRP (44), and ISG15 protein is elevated in A-T cells (20). An HA-ubiquitin construct was transfected and then the steady state levels of the HA-polyubiquitylated proteins was assessed (to rule out the possibility of protein polyubiquitylation versus protein polyISGlyation), in the absence or presence of the proteasome inhibitor MG132 (to rule out the possibility of protein deubiquitylation versus protein degradation), in UV treated A-T and ATM+ cells. In FIG. 8B, A-T and ATM+ cells were transfected with a HA-ubiquitin construct. Cells were then treated with MG132 (1 μM) or Bafl (1 nM) for 18 hours and exposed to UV radiation (25 mJ/m2). After recovery in the presence of inhibitors for an additional three hours, cells were lysed. Cell extracts were analyzed by Western blotting for HA-polyubiquitylated proteins and actin using anti-HA and anti-actin antibodies respectively. Intensity of the total HA-polyubiquitylated proteins was quantitated using BioRad Quantity One software and results shown in FIG. 8C.
To complement the results shown in FIG. 8B, another construct was used that expresses HA-ubiquitin and that can preferentially make polyubiquitin chains linked through Lys48 on the substrates (20). In FIG. 8D, A-T and ATM+ cells were transfected with HA-Lys48 only ubiquitin construct. The inhibitor and UV treatments, cell lysis, SDS-PAGE, and immunoblotting analysis to detect HA-ubiquitin conjugated proteins using anti-HA antibodies was carried out as described herein. The experiment was repeated two times with the reproducible results. Similar results were obtained using this distinct HA-ubiquitin construct (FIG. 8D) as obtained herein (FIG. 8B); UV induced MG132- and Bafilomycin-resistant degradation of HA-Lys48-linked polyubiquitylated proteins in A-T cells, but not in ATM+ cells.
For FIG. 14A, HA-ubiquitin-transfected A-T/LV-control shRNA cells were exposed to UV (25 mJ/m2). After three hours of recovery, assessment of HA-polyubiquitylated proteins was carried out as described herein for FIG. 8B. In FIG. 14B, HA-ubiquitin-transfected A-T/LV-control shRNA cells were treated with Bafl (1 nm for 18 h). Cells were then exposed to UV (25 mJ/m2). After three hours of recovery in the presence of the inhibitor, assessment of HA-polyubiquitylated proteins was carried out as described for FIG. 14A. For FIG. 14C, HA-ubiquitin-transfected A-T/LV-control shRNA cells were treated with MG132 (1 nm for 18 h). Cells were then exposed to UV (25 mJ/m2). After three hours of recovery in the presence of the inhibitor, assessment of HA-polyubiquitylated proteins was carried out as described for FIG. 14A. For FIG. 14D, HA-ubiquitin-transfected A-T/LV-control shRNA cells were treated with 3-MA (10 nm for 18 h). Cells were then exposed to UV (25 mJ/m2). […]

[4] = test system: HA-polyubiquitylated proteins; test: as above; format: cell-based, human; details: A-T cells; 50 nM Bafl

CO/C1=C\C(C)=C\[C@@H](C)[C@@H](O)[C@@H](C)C/C(C)=C/C=C/[C@H](OC)[C@@H]([C@@H](C)[C@@H](O)[C@H](C)[C@@]2(O)C[C@@H](O)[C@H](C)[C@@H](C(C)C)O2)OC1=O [Bafilomycin A1]
UV-mediated degradation of polyubiquitylated proteins ([1]; A-T brain slices): failed to protect | UV-induced degradation of polyubiquitylated proteins ([1]; ATM+/− brain slices): markedly protected | CPT-mediated degradation of polyubiquitylated proteins [2]: failed to protect | UV-induced degradation of HA-Lys48-linked polyubiquitylated proteins ([3]; A-T cells): resistant | UV-induced decrease of HA-polyubiquitylated proteins ([3]; A-T cells): failed to block | UV-induced decrease of HA-polyubiquitylated proteins ([3]; ATM+ cells): significantly blocked | UV-induced degradation of cellular proteins [4]: failed to protect

CC(C)C[C@@H](C=O)NC(=O)[C@H](CC(C)C)NC(=O)[C@H](CC(C)C)NC(=O)OCc1ccccc1 [MG132] (Cbz-Leu-Leu-Leu-aldehyde)
UV-induced degradation of HA-Lys48-linked polyubiquitylated proteins ([3]; A-T cells): resistant | UV-induced decrease of HA-polyubiquitylated proteins ([3]; A-T cells): failed to protect | UV-induced degradation of HA-polyubiquitylated proteins ([3]; A-T/LV-ISG15 shRNA (ISG15-silenced) cells): completely block | UV-induced degradation of HA-polyubiquitylated proteins ([3]; A-T/LV-control shRNA cells): failed to block | UV-induced decrease of HA-polyubiquitylated proteins ([3]; ATM+ cells): completely blocked

Reference: patent US12085575B2, “Compositions and methods for detecting proteinopathies” (BOARD OF SUPERVISORS OF LOUISIANA STATE UNIVERSITY AND …, priority 2011, dated 2024)
